The text below walks through data of patent publication US10143691B2, “Pathogenic control of apoptosis” (CSIR, priority 2014, dated 2018).

“Also recorded” adds a separate entry of the source.

In the assay the test system is lincRNAp21. Briefly: lincRNA-p21 expression by RNA FISH spot counts and quantitative RT-PCR. In kind it is cell-based, human. The following applies: uninfected Ghost(3) cells, drug-treated, smFISH spot count and qRT-PCR. How it is done:
RNA FISH on Ghost(3) cells was performed according to Raj, 2008 and on primary macrophages according to Schaffer, 2013. For both methods 48 20mer probes (Biosearch) targeted to human lincRNAp21 were synthesised baring a […] C6dT. The amino group was subsequently conjugated to the following NHSester dyes: ATTO565, ATTO647N (ATTOTEC) or Alexa Fluor 647 (Invitrogen). Briefly, oligonucleotide probes were ethanol precipitated and resuspended in 0.1 M sodium tetraborate (Sigma). Approximately 0.3 mg of the NHSester dye (ATTOTEC) was dissolved in dimethyl sulphoxide (Sigma). The dye solution was added to the probe solution and incubated overnight in the dark at 37° C. Following the conjugation reaction, the probes were ethanol precipitated overnight, and resuspended in 0.1 M triethyl ammonium (Sigma). Conjugated probes were separated and purified to enrich for dyeconjugated probes by reverse phase HPLC on a C18 column. […]
For each experiment, Ghost(3) cells or IPSO-derived primary macrophages were infected or treated with 500 nM Doxorubicin over time and total RNA was extracted from cells using TRIzol® (Life Technologies), treated with RQ1 RNase-free DNase (Promega) and reverse transcribed using SuperScript III Reverse Transcriptase (Life Technologies). Quantitative RTPCR was performed using Sso Fast EvaGreen™ supermix (BioRad) on a BioRad CFX96 real-time PCR detection system. […]
A general note: Quantitative PCR measures a nucleic acid by following its amplification.

As for `COc1cccc2c1C(=O)c1c(O)c3c(c(O)c1C2=O)C[C@@](O)(C(=O)CO)C[C@@H]3O[C@H]1C[C@H](N)[C@H](O)[C@H](C)O1` [Doxorubicin], the lincRNA-p21 expression entry was “enhanced; also recorded: significantly increases lincRNAp21 expression over time”.
